According to article PMC5511861, “DS16570511 is a small-molecule inhibitor of the mitochondrial calcium uniporter” (Cell Death Discovery, 2017):

Tests used:
[1] = tested on: mitochondrial Ca2+ levels in rat perfused heart; assay: Mitochondrial Ca2+ overload in rat isolated perfused heart; settings: 10 min pretreatment
Experimental: We investigated the effect of DS16570511 on mitochondrial Ca^2+ levels in a rat isolated perfused heart. In the normal condition of the perfusion assay, the Ca^2+ concentration of the perfusion buffer is 2.5 mM.[23] To induce mitochondrial Ca^2+ overload, Ca^2+ concentration in the perfusion buffer was increased from 2.5 mM to 5 mM or 7.5 mM.
Figure 6 DS16570511 inhibits mitochondrial Ca^2+ overload in isolated heart. Effect of DS16570511 on mitochondrial Ca^2+ levels in rat perfused heart. For induction of Ca^2+ overload in mitochondria ex vivo, Ca^2+ concentration was increased from 2.5 mM to 5 mM or 7.5 mM. The heart was treated with DS16570511 for 10 min before the high Ca^2+ treatment. Data are mean with S.E.M. from more than three independent samples.
The hearts were rapidly excised from 9-week-old male Wistar rats and perfused at 37 °C with Krebs-Ringer perfusion buffer (127.2 mM NaCl, 4.7 mM KCl, 2.5 mM CaCl2, 1.2 mM KH2PO4, 1.2 mM MgSO4, 25 mM NaHCO3 and 5.5 mM glucose (pH 7.4)) equilibrated with 95% O2/5% CO2. A balloon was inserted through the left atrium into the left ventricle. Heart rate and contractility were continuously recorded with a data acquisition system (PowerLab, ADInstruments, Bella Vista, NSW, Australia).

[2] = biological target: T1, mitochondrial calcium uniporter (Homo sapiens, UniProt Q8NE86); assay: Aequorin assay: serum-induced mitochondrial Ca2+ influx in HEK293A cells expressing mitochondria-targeted aequorin; type: cell-based; design: endogenous in cells; host or cells: HEK293A cells stably expressing mitochondria-targeted aequorin; settings: 10% fetal bovine serum, 20 min pretreatment, read-out: IC50, inhibition of serum-induced mitochondrial Ca2+ influx
T1 sequence (Q8NE86 51-351): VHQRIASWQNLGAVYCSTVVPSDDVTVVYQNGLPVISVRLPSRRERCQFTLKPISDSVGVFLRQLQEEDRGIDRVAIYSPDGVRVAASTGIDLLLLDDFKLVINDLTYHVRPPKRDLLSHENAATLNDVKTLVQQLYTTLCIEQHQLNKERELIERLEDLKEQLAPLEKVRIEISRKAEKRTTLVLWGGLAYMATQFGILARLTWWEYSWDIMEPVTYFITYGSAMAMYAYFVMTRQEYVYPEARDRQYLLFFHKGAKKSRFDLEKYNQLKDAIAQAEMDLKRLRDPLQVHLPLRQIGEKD
T1 sequence (Q9H4I9 48-107 partner limits assumed): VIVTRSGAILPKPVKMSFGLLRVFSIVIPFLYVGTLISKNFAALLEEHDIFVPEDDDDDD
Experimental: In the first screening using the cell-based assay, application of 10% fetal bovine serum to the cells triggered a rapid increase of mitochondrial Ca^2+ level (Figure 1a). Pretreatment of the cells with DS16570511 inhibited the serum-induced mitochondrial Ca^2+ influx with an IC50 of 7 μM (Figures 1a and b). In order to eliminate broad channel inhibitors or chemicals affecting the aequorin-based detection system, a counter assay was carried out using HEK293A cells expressing aequorin in cytosol. In the assay, the concentration of DS16570511 used to decrease the serum-induced cytosolic Ca^2+ increase by 50% was ~50 μM.
Figure 1 DS16570511 inhibits mitochondrial Ca^2+ influx in HEK293A cells. (a) Representative raw data of serum-induced mitochondrial Ca^2+ influx in HEK293A cells. (b) Effect of DS16570511 on serum-induced mitochondrial Ca^2+ influx. The area under the curve of temporal aequorin activities is used for calculation of inhibitory activities. […]
For dynamic measurements of mitochondrial Ca^2+ levels in intact cells, HEK293A cells were stably transfected with pIRES-puro vector expressing mitochondria-targeted aequorin.[20] […] For induction of intracellular Ca^2+, the cells were treated with 10% fetal bovine serum, and luminescence levels were measured by using a Centro LB960 luminometer (Berthold Technologies, Oak Ridge, TN, USA).

[3] = tested on: Ca2+ uptake of rat heart mitochondria; assay: Ca2+ uptake assay using isolated rat heart mitochondria (atomic absorbance spectrometer); type: biochemical; settings: 100 μM CaCl2; read-out: IC50, inhibition of Ca2+ uptake of rat heart mitochondria
Experimental: We then asked whether DS16570511 inhibits Ca^2+ uptake in isolated mitochondria from animal heart. An atomic absorbance spectrometer-based detection method was employed to analyze intramitochondrial Ca^2+ levels. We prepared freshly isolated mitochondria from pig heart, and the mitochondria were incubated with 100 μM CaCl2.
Figure 3 DS16570511 inhibits Ca^2+ uptake in isolated heart mitochondria. (a) Effect of RuR on Ca^2+ uptake of pig heart mitochondria. […] Data are mean with S.E.M. from three independent samples. (b) Inhibition rate of RuR or DS16570511 on Ca^2+ uptake of pig heart mitochondria. Inhibition 0 or 100% is defined as a value of Ca^2+-untreated mitochondria or Ca^2+-treated mitochondria, respectively. Data are mean with S.E.M. from three independent samples. (c) Inhibition rate of RuR or DS16570511 on Ca^2+ uptake of rat heart mitochondria. Data are mean with S.E.M./variation from three or two independent samples for DS16570511 or RuR, respectively.
Mitochondria were isolated by using the mitochondria isolation kit and then dissolved in the swelling buffer. The protein concentration of the mitochondrial solution was 5 mg/ml. […] The solution was then diluted by water, and Ca^2+ concentration of the solution was measured by atomic absorbance spectrometer (Hitachi High-Technologies Corporation, Z-2710, Tokyo, Japan).

Cc1onc(-c2c(Cl)cccc2Cl)c1CNc1cccc(C(=O)c2cn(CCCC(=O)O)c3ccccc23)c1 [DS16570511]
effect on mitochondrial Ca2+ level, normal buffer ([1]; 2.5 mM Ca2+ buffer, 30 μM): no significant effect | effect on mitochondrial Ca2+ increase induced by 5.0 mM Ca2+ buffer ([1]; 5.0 mM Ca2+ buffer): blocked | effect on mitochondrial Ca2+ overload induced by 7.5 mM Ca2+ buffer ([1]; 7.5 mM Ca2+ buffer): dose-dependently inhibited | IC50 [2]: 7 µM | IC50 [3]: 25 µM
